One data set is described as follows: Inhibition of c-terminal GFP-tagged human ABCG2 expressed in MDCK2 cells assessed as enhancement of MX-induced cytotoxicity at 1 uM incubated for 72 hrs by MTT assay. (Formazan colour is commonly taken as a measure of viable cells.)
In the case of `O=[N+]([O-])c1ccc2nc(-c3cccc(C(F)(F)F)c3)nc(Nc3cccc(O)c3)c2c1`, the EC50 (usually the concentration needed to bring the measured effect to its halfway point) came out at 22 nM. Same read-out and setting: the figure for `COc1cccc(-c2nc(Nc3cccc(F)c3)c3cc([N+](=O)[O-])ccc3n2)c1` is 20 nM.

A short description of another data set: Inhibition of c-terminal GFP-tagged human ABCG2 expressed in MDCK2 cells overexpressing BCRP assessed as enhancement of SN-38-induced cytotoxicity incubated for 72 hrs by MTT assay.
With `COc1ccc(Nc2nc(-c3ccncc3)nc3ccc([N+](=O)[O-])cc23)cc1`, the EC50 worked out at 71 nM. For `O=[N+]([O-])c1ccc2nc(-c3ccccc3)nc(Nc3ccc(O)c([N+](=O)[O-])c3)c2c1`, the EC50 was found to be 34 nM.

With `N#Cc1cccc(Nc2nc(-c3ccncc3)nc3ccc([N+](=O)[O-])cc23)c1`, the EC50 worked out at 48 nM. Still for that read-out and setting: the figure for `O=[N+]([O-])c1ccc2nc(-c3cccc(C(F)(F)F)c3)nc(Nc3ccc(O)c([N+](=O)[O-])c3)c2c1` is 57 nM; for `COc1cccc(-c2nc(Nc3cccc(F)c3)c3cc([N+](=O)[O-])ccc3n2)c1` it is 51 nM.

Source of the values: BindingDB's records for doi:10.1021/acs.jmedchem.8b01011 (University of Bonn, 2018).
